The results in this text go back to ChEMBL document CHEMBL5338758, “Design, Synthesis, and Bioevaluation of Novel MyD88 Inhibitor c17 against Acute Lung Injury Derived from the Virtual Screen” (J Med Chem, 2023).

The test system of series [1] is J774.A1. The series can be described thus: Anti-inflammatory activity in mouse J774.A1 cells assessed as inhibition of LPS-induced IL-6 production at 10 uM pre-stimulated with LPS for 24 hrs followed by compound addition and measured after 0.5 hrs by ELISA analysis relative to control. It is filed as functional. A general note: ELISA stands for enzyme-linked immunosorbent assay.

The test system of series [2] is J774.A1. As to the kind of experiment: Anti-inflammatory activity in mouse J774.A1 cells assessed as inhibition of LPS-induced TNF-alpha production at 10 uM pre-stimulated with LPS for 24 hrs followed by compound addition and measured after 0.5 hrs by ELISA analysis relative to control. The class given is functional.
Series [3] has as its system J774.A1. The series can be described thus: Anti-inflammatory activity in mouse J774.A1 cells assessed as inhibition of LPS-induced IL-6 production pre-stimulated with LPS for 24 hrs followed by compound addition and measured after 0.5 hrs by ELISA analysis. It is filed as functional, cell-based.
Series [4] concerns J774.A1. As to the kind of experiment: Anti-inflammatory activity in mouse J774.A1 cells assessed as inhibition of LPS-induced TNF-alpha production pre-stimulated with LPS for 24 hrs followed by compound addition and measured after 0.5 hrs by ELISA analysis. It is filed as functional, cell-based.
In series [5] the test system is J774.A1. As to the kind of experiment: Cytotoxicity against mouse J774.A1 cells assessed as reduction in cell survival incubated for 24 hrs by MTT assay. It is filed as toxicity, cell-based. The note with it: j774.a1, 24 h. On the technique in general: Tetrazolium dyes change colour on reduction, which living cells bring about.
For series [6], the target named is T1, Myeloid differentiation primary response protein MyD88 (Homo sapiens, UniProt Q99836). The series can be described thus: Binding affinity to human MyD88 TIR domain by SPR analysis. The note with it: dose 1.19-5.94 10^-5M. For orientation: In SPR one partner is held on a chip, and binding of the other changes the refractive index at the surface.
Series [7] has as its target T1, Myeloid differentiation primary response protein MyD88. As to the kind of experiment: Binding affinity to human MyD88 TIR domain assessed as equilibrium dissociation constant by SPR analysis.
Series [8] concerns J774.A1. The series can be described thus: Anti-inflammatory activity in mouse J774.A1 cells assessed as suppression of LPS-induced IL-6 production by ELISA analysis. The class given is functional, cell-based.

Each structure is given as a SMILES string. Active and inactive are the calls of the source. The rule behind the calls is not given here.

T1 sequence (Q99836 whole entry, the tested form may be a part): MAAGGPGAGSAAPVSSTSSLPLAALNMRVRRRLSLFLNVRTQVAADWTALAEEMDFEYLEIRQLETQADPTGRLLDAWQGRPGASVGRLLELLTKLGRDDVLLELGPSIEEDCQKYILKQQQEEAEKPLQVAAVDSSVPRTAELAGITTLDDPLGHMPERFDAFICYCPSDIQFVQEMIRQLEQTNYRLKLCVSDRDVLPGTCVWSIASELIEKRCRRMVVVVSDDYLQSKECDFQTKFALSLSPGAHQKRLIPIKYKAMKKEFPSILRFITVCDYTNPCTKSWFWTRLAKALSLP

Turning to `COCCN1CCN(c2ccc(C(=O)Nc3ccccc3)cc2[N+](=O)[O-])CC1`, the inhibition at 10 µM in series [1] turned out to be 47.8%; in series [2], 26.9%.
In the same order, the values of `COc1ccc(NS(=O)(=O)c2ccc(N3CCN(c4cnc(NC(C)=O)s4)CC3)c([N+](=O)[O-])c2)cn1` are 39.9% and 12.2%.
For the molecule `O=c1[nH]c(-c2ccccc2)nc2cc(CN3CCN(c4ccc([N+](=O)[O-])cc4)CC3)ccc12`, the inhibition entry in series [1] and in series [2] was “inactive” throughout.
In the case of `O=[N+]([O-])c1cc(S(=O)(=O)Nc2ccccc2)ccc1N1CCN(CCO)CC1`, the inhibition at 10 µM came out at 55.6% in series [1] and 7.89% in series [2].
In the same order, the values of `O=C(NCc1ccccn1)c1ccc(N2CCN(Cc3ccccc3)CC2)c([N+](=O)[O-])c1` are 36.4% and 35.4%.
In the same order, the values of `O=[N+]([O-])c1cccc(CN2CCN(c3ccc(S(=O)(=O)Nc4ccccc4)cc3[N+](=O)[O-])CC2)c1` are 71.2% and 33.9%.
Regarding `O=C(Nc1ccccc1)c1ccc(N2CCN(Cc3cccc([N+](=O)[O-])c3)CC2)c([N+](=O)[O-])c1`, the inhibition result in series [1] and in series [2] was “inactive” each time.
On to `COc1ccc(NS(=O)(=O)c2ccc(N3CCN(Cc4ccccc4)CC3)c([N+](=O)[O-])c2)cn1`, for which the inhibition at 10 µM was 55.1% in series [1] and 27.7% in series [2].
As for `COCCN1CCN(Cc2ccc(-c3cc(-c4ccccc4)[nH]c(=O)n3)cc2)CC1`, in series [1], the inhibition entry was “inactive”. The inhibition at 10 µM in series [2] amounted to 25.6%.
For the molecule `O=c1nc(-c2ccc(CN3CCN(CCOCCO)CC3)cc2)cc(-c2ccc(Br)cc2)[nH]1`, the inhibition at 10 µM in series [1] was found to be 58.4%; in series [2], 22.6%.
In the same order, the values of `COCCN1CCN(Cc2ccc(-c3cc(-c4ccc(OC)cc4)[nH]c(=O)n3)cc2)CC1` are 14.8% and 40.8%.
Regarding `COCCN1CCN(c2ccc(S(=O)(=O)NCc3ccccn3)cc2[N+](=O)[O-])CC1`, the inhibition at 10 µM stood at 50.4% in series [1] and 11.8% in series [2].
In the same order, the values of `COCCN1CCN(Cc2ccc(-c3nc4ccccc4c(=O)[nH]3)cc2)CC1` are 34% and 22.6%.
In the same order, the values of `COCCN1CCN(c2ccc(S(=O)(=O)Nc3ccc(OC)nc3)cc2[N+](=O)[O-])CC1` are 47.3% and 1.16%.
Turning to `COCCN1CCN(Cc2ccc3c(=O)[nH]c(-c4ccccc4)nc3c2)CC1`, the inhibition at 10 µM in series [1] amounted to 29.2%. For the same molecule, in series [2], the inhibition result is “inactive”.
As to `O=c1nc(-c2ccc(CN3CCN(CCOCCO)CC3)cc2)cc(-c2ccccc2)[nH]1`, the inhibition at 10 µM turned out to be 19.3% in series [1] and 14.2% in series [2].
For `O=c1nc(-c2ccc(CNc3nc4ccccc4s3)cc2)cc(-c2ccccc2)[nH]1`, the inhibition at 10 µM worked out at 79.5% in series [1] and 53.3% in series [2]. In addition, the IC50 in series [3] is 0.53 µM; in series [4], 17.7 µM. In addition, the Activity entry in series [5] was “Non-Toxic”. Moreover, in series [6], the result was inactive.
In the case of `O=c1nc(-c2ccc(CN3CCN(c4ccc([N+](=O)[O-])cc4)CC3)cc2)cc(-c2ccccc2)[nH]1`, the inhibition at 10 µM in series [1] was determined as 15.7%; in series [2], 50.6%.
As to `O=c1[nH]c(-c2ccccc2)nc2cc(CN3CCN(CCO)CC3)ccc12`, in series [1], the inhibition at 10 µM is 46%. In series [2], the inhibition entry was “inactive”.
On to `COc1ccc(-c2cc(-c3ccc(CN4CCN(CCOCCO)CC4)cc3)nc(=O)[nH]2)cc1`, for which the inhibition at 10 µM came out at 17.1% in series [1] and 27.2% in series [2].
In the same order, the values of `O=C(Nc1cccc2ccccc12)c1ccc(N2CCN(Cc3cccc([N+](=O)[O-])c3)CC2)c([N+](=O)[O-])c1` are 62.2% and 39.8%.
With `CCCCCNCc1ccc(-c2cc(-c3ccccc3)[nH]c(=O)n2)cc1`, the inhibition at 10 µM in series [1] amounted to 17.9%; in series [2] it was 16.1%.
Consider `COc1ccc(-c2cc(-c3ccc(CN4CCN(CCO)CC4)cc3)nc(=O)[nH]2)cc1`, for which the inhibition at 10 µM in series [1] came to 8.43%; in series [2], 33.7%.
`O=C(Nc1ccccc1)c1ccc(N2CCN(Cc3ccc([N+](=O)[O-])cc3)CC2)c([N+](=O)[O-])c1`: the inhibition entry in series [1] and in series [2] was “inactive” each time.
As for `COc1ccc(NS(=O)(=O)c2ccc(N3CCN(Cc4ccc([N+](=O)[O-])cc4)CC3)c([N+](=O)[O-])c2)cn1`, the values for the inhibition at 10 µM in series [1] and in series [2] were 71.8% and 37.9%, respectively. Also, the IC50 in series [3] was 3.4 µM; in series [4] it was 14.1 µM.
`COCCN1CCN(c2ccc(S(=O)(=O)Nc3ccccc3)cc2[N+](=O)[O-])CC1`: the inhibition at 10 µM came out at 60.3% in series [1] and 16.9% in series [2].
Regarding `O=c1[nH]c(-c2ccc(CN3CCN(c4ccc([N+](=O)[O-])cc4)CC3)cc2)nc2ccccc12`, in series [1], the inhibition at 10 µM was 44.1%. For the same molecule, the inhibition entry in series [2] is “inactive”.
As for `CCCCCNCc1ccc(-c2cc(-c3ccc(OC)cc3)[nH]c(=O)n2)cc1`, the inhibition at 10 µM was determined as 35.3% in series [1] and 24.1% in series [2].
Consider `COc1ccc(NS(=O)(=O)c2ccc(N3CCN(CCO)CC3)c([N+](=O)[O-])c2)cn1`, for which, in series [1], the inhibition at 10 µM worked out at 22.2%. For the same molecule, the inhibition entry in series [2] was “inactive”.
On to `CC(=O)N1CCN(Cc2ccc(-c3nc4ccccc4c(=O)[nH]3)cc2)CC1`, for which the inhibition at 10 µM in series [1] came out at 53.7%; in series [2] it was 11.9%.
In the same order, the values of `O=C(NCc1ccccn1)c1ccc(N2CCN(Cc3ccc([N+](=O)[O-])cc3)CC2)c([N+](=O)[O-])c1` are 57.6% and 37%.
For the molecule `CC(=O)N1CCN(Cc2ccc(-c3cc(-c4ccc(Br)cc4)[nH]c(=O)n3)cc2)CC1`, the inhibition result in series [1] and in series [2] was “inactive” throughout.
On to `COc1ccc(NS(=O)(=O)c2ccc(N3CCN(c4ncccn4)CC3)c([N+](=O)[O-])c2)cn1`, for which the inhibition at 10 µM in series [1] worked out at 45%; in series [2], 22.3%.
On to `O=c1[nH]c(-c2ccccc2)nc2cc(CN3CCN(CCOCCO)CC3)ccc12`, for which, in series [1], the inhibition at 10 µM was found to be 24.1%. The inhibition result in series [2] is “inactive”.
Turning to `COc1ccc(-c2cc(-c3ccc(CN4CCN(c5ccc([N+](=O)[O-])cc5)CC4)cc3)nc(=O)[nH]2)cc1`, the results for the inhibition at 10 µM in series [1] and in series [2] were 35% and 38.7%, respectively.
Take `CC(=O)N1CCN(Cc2ccc3c(=O)[nH]c(-c4ccccc4)nc3c2)CC1`: the inhibition at 10 µM in series [1] turned out to be 26%. For the same molecule, the inhibition entry in series [2] is “inactive”.
In the same order, the values of `O=C(Nc1ccccc1)c1ccc(N2CCN(c3ccc([N+](=O)[O-])cc3)CC2)c([N+](=O)[O-])c1` are 14.9% and “inactive”.
As to `COc1ccc(CN2CCN(c3ccc(S(=O)(=O)Nc4ccc(OC)nc4)cc3[N+](=O)[O-])CC2)cc1`, the values for the inhibition at 10 µM in series [1] and in series [2] were 63.5% and 27.9%, respectively.
`O=C(NCc1ccccn1)c1ccc(N2CCN(Cc3cccc([N+](=O)[O-])c3)CC2)c([N+](=O)[O-])c1`: the values for the inhibition at 10 µM in series [1] and in series [2] were 33.1% and 27%, respectively.
In the same order, the values of `O=[N+]([O-])c1cc(S(=O)(=O)NCc2ccccn2)ccc1N1CCN(CCO)CC1` are 37.8% and 6.63%.
In the same order, the values of `COCCN1CCN(Cc2ccc(-c3cc(-c4ccc(Br)cc4)[nH]c(=O)n3)cc2)CC1` are 46.1% and 41.1%.
For the molecule `O=C(Nc1ccccc1)c1ccc(N2CCN(CCO)CC2)c([N+](=O)[O-])c1`, the inhibition at 10 µM in series [1] stood at 47.5%; in series [2], 1.01%.
Consider `O=c1cc(-c2ccncc2)nc(-c2ccc(CN3CCN(CCO)CC3)cc2)[nH]1`, for which the Kd in series [7] was 795 µM. Also, the result in series [8] was Active. The inhibition at 10 µM in series [1] amounted to 33.5%; in series [2], 8.59%.
Take `O=c1nc(-c2ccc(CN3CCN(CCO)CC3)cc2)cc(-c2ccc(Br)cc2)[nH]1`: the inhibition at 10 µM in series [1] came out at 7.52%; in series [2], 29.6%.
Take `O=c1[nH]c(-c2ccc(CN3CCN(CCO)CC3)cc2)nc2ccccc12`: the inhibition at 10 µM in series [1] amounted to 57.1%. Further, the inhibition result in series [2] is “inactive”.
With `O=c1nc(-c2ccc(CN3CCN(CCO)CC3)cc2)cc(-c2ccccc2)[nH]1`, the values for the inhibition at 10 µM in series [1] and in series [2] were 18.2% and 17.9%, respectively.

By inhibition is commonly meant how much of the control response was suppressed. In general, IC50 refers to the point on the concentration scale where inhibition reaches its midpoint. For orientation: Kd means the free concentration of one partner at which half of the binding sites on the other are occupied at equilibrium, for simple one-to-one binding.
